Here are results for 22 compounds from patent US12110276B2 (Genentech, Inc., priority 2021, dated 2024).

In one test the target is TEAD3 (Homo sapiens (Human), UniProt Q99594). Nature of the test: TR-FRET lipid pocket probe competition assay (Lipid HTRF), TEAD3. Type of test: binding. Conditions: 4 hours pre-incubation; read-out: Lipid HTRF TEAD3 IC50.
In test [1] the target is T1, TEAD2 (Homo sapiens (Human), UniProt Q15562). Nature of the test: biochemical.
For another test, the target named is TEAD4 (Homo sapiens (Human), UniProt Q15561). Put plainly: TR-FRET lipid pocket probe competition assay (Lipid HTRF), TEAD4.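 Further: His-tagged TEAD4 with biotinylated lipid-pocket probe, read by Europium anti-His and XL665 streptavidin, where probe displacement lowers the TR-FRET signal, IC50 from a four-parameter fit.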 Type of test: binding. Conditions: 4 hours pre-incubation; read-out: Lipid HTRF TEAD4 IC50. A general note: In TR-FRET formats the signal depends on donor and acceptor labels being close together.
For a further test, the target named is TEAD1 (Homo sapiens (Human), UniProt P28347). Put plainly: TR-FRET lipid pocket probe competition assay (Lipid HTRF), TEAD1.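 Further: His-tagged TEAD1 with biotinylated probe, detected via Europium anti-His and XL665 streptavidin, probe displacement lowers TR-FRET signal, IC50 from four-parameter nonlinear fit.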 Type of test: binding. Conditions: 4 hours pre-incubation; read-out: Lipid HTRF TEAD1 IC50.
For test [2], the target named is T1, TEAD2.

Like-named read-outs stand apart in the source and are kept apart here.

Chain of TEAD1 (P28347 whole entry, species assumed): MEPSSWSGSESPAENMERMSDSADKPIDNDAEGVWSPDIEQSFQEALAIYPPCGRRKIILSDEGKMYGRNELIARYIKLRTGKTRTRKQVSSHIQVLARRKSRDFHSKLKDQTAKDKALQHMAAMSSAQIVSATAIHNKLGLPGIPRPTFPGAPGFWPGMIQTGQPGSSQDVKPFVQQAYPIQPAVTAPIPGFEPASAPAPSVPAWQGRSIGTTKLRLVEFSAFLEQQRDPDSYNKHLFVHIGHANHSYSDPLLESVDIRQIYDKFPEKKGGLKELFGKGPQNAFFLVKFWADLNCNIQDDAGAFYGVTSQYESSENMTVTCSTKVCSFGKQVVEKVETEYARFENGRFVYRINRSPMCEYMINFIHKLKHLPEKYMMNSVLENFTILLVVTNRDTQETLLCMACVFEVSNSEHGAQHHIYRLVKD
Chain of TEAD3 (Q99594 whole entry, species assumed): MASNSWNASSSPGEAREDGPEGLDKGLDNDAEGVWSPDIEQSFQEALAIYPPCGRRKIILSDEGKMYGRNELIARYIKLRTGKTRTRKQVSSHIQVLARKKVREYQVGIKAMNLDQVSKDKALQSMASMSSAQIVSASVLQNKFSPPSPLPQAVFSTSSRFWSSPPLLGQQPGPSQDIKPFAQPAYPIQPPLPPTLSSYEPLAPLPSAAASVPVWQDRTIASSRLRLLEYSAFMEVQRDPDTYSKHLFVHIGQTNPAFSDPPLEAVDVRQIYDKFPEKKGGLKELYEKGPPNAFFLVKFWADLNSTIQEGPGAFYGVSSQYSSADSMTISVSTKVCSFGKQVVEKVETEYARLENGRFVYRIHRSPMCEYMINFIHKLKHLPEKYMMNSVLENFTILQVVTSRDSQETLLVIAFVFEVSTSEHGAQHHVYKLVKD
Chain of TEAD4 (Q15561 whole entry, species assumed): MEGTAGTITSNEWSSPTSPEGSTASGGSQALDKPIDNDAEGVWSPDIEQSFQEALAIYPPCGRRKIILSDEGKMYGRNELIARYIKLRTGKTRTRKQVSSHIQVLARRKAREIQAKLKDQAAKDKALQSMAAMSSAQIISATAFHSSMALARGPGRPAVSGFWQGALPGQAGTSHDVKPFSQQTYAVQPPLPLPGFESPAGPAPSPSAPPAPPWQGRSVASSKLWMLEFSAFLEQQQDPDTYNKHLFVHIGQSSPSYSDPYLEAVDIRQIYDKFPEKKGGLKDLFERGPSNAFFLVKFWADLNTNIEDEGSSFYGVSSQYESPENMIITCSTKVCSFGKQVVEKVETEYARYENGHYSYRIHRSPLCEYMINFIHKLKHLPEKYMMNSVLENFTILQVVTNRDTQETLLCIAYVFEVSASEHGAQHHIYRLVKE
T1 sequence (Q15562 whole entry, species assumed): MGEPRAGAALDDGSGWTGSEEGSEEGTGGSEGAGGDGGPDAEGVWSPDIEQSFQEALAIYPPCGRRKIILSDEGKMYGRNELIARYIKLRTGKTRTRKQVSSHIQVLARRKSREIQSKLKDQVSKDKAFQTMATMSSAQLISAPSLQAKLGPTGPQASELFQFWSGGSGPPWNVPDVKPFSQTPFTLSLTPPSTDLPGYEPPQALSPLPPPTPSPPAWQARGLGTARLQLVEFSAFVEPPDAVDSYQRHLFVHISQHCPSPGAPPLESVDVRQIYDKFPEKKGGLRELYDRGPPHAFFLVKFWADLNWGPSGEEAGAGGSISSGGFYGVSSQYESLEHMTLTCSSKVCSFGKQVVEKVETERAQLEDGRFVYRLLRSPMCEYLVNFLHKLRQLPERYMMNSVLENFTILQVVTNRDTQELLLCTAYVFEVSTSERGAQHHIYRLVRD
Procedure for TEAD1: (§1) His-tagged TEAD proteins are pre-incubated with TEAD project compounds for 30 minutes or 4 hours at room temperature. Biotinylated lipid pocket probes are then added to the TEAD/Compound mixture and incubated for 60 minutes at room temperature. The lipid pocket probe competes with the test compound for the TEAD lipid pocket until equilibrium is reached. After 60 minutes, Europium labelled anti-His (Perkin Elmer #AD0110) and XL665 labelled streptavidin (CIS Bio 610SAXAC) are added to the TEAD/test compound/lipid pocket mixture and incubated for 30 minutes or 4 hours. […] If a TEAD lipid pocket binder such as binds and displaces the lipid pocket probe, the disruption of the TEAD:probe interaction results in a decrease in TR-FRET signal. The potency of compounds as TEAD lipid pocket binders is determined by IC50 value generated using a non-linear 4 parameter curve fit.
Procedure for TEAD4: as §1

As for `C=CC(=O)NCc1nn(-c2ccc(C(F)(F)F)cc2)c2nccc([C@H](O)CO)c12` (stereo in doubt) [Compound 100, N-((4-(1,2-dihydroxyethyl)-1-(4-(trifluoromethyl)phenyl)-1H-pyrazolo[3,4-b]pyridin-3-yl)methyl)acrylamide], the IC50 on TEAD3 was found to be 0.72 µM; against TEAD2 [1] it was 0.52 µM; at TEAD4, 0.1 µM; at TEAD1 it was 0.48 µM.

On to `C/C=C(\C)C(=O)N1CC(c2nn(-c3ccc(OC(F)(F)F)cc3)c3nccc(CO)c23)C1` [Compound 151, (E)-1-(3-(4-(Hydroxymethyl)-1-(4-(trifluoromethoxy)phenyl)-1H-pyrazolo[3,4-b]pyridin-3-yl)azetidin-1-yl)-2-methylbut-2-en-1-one], for which the IC50 on TEAD3 turned out to be 50 µM; at TEAD4, 0.57 µM; against TEAD2 [2], 0.63 µM; on TEAD1, 0.68 µM.

As for `C=C(F)C(=O)N1CC(c2nn(-c3ccc(OC(F)(F)F)cc3)c3nccc(-c4cnn(CCOC)c4)c23)C1` [Compound 176, 2-fluoro-1-(3-(4-(1-(2-methoxyethyl)-1H-pyrazol-4-yl)-1-(4-(trifluoromethoxy)phenyl)-1H-pyrazolo[3,4-b]pyridin-3-yl)azetidin-1-yl)prop-2-en-1-one], the IC50 turned out to be 50 µM at TEAD3, 0.077 µM on TEAD4, 0.8 µM on TEAD2 [2] and 0.046 µM on TEAD1.

Consider `N#Cc1ccnc2c1c(C1CN(C(=O)/C=C/CO)C1)nn2-c1ccc(OC(F)(F)F)cc1` [Compound 79], for which the IC50 on TEAD3 was determined as 0.02 µM; at TEAD4, 0.0068 µM; against TEAD2 [2], 0.06 µM; at TEAD1 it was 0.019 µM.

In the case of `CC#CC(=O)N1CC(c2nn(-c3ccc(OC(F)(F)F)cc3)c3nccc([C@H](O)CO)c23)C1` [Compound 129, (S)-1-(3-(4-(1,2-Dihydroxyethyl)-1-(4-(trifluoromethoxy)phenyl)-1H-pyrazolo[3,4-b]pyridin-3-yl)azetidin-1-yl)but-2-yn-1-one], the IC50 on TEAD3 amounted to 0.2 µM; on TEAD4, 0.043 µM; on TEAD2 [2], 0.02 µM; on TEAD1, 0.11 µM.

Take `C=CC(=O)NCc1nn(-c2ccc(OC(F)(F)F)cc2)c2nccc(C(=O)NC)c12` [Compound 30, 3-(Acrylamidomethyl)-N-methyl-1-(4-(trifluoromethoxy)phenyl)-1H-pyrazolo[3,4-b]pyridine-4-carboxamide]: the IC50 on TEAD3 came to 2.6 µM; at TEAD4 it was 0.18 µM; against TEAD2 [2], 1.5 µM; on TEAD1 it was 0.49 µM.

In the case of `C=C(F)C(=O)N1CC(c2nn(-c3ccc(OC(F)(F)F)cc3C)c3nccc(CO)c23)C1` [Compound 184, 2-fluoro-1-(3-(4-(hydroxymethyl)-1-(2-methyl-4-(trifluoromethoxy)phenyl)-1H-pyrazolo[3,4-b]pyridin-3-yl)azetidin-1-yl)prop-2-en-1-one], the IC50 on TEAD3 came to 0.79 µM; at TEAD4 it was 0.1 µM; at TEAD2 [2] it was 2.3 µM; at TEAD1, 0.14 µM.

As to `C[C@H](O)/C=C/C(=O)N1CC(c2nn(-c3ccc(OC(F)(F)F)cc3)c3nccc(CO)c23)C1` [Compound 97, (S,E)-4-hydroxy-1-(3-(4-(hydroxymethyl)-1-(4-(trifluoromethoxy)phenyl)-1H-pyrazolo[3,4-b]pyridin-3-yl)azetidin-1-yl)pent-2-en-1-one], the IC50 on TEAD3 came to 0.57 µM; at TEAD4, 0.058 µM; at TEAD2 [2], 0.52 µM; on TEAD1 it was 0.078 µM.

As for `C=C(F)C(=O)N1CC(c2nn(-c3ccc(OC(F)(F)F)cc3)c3nccc(-c4c[nH]cn4)c23)C1` [Compound 130, 1-(3-(4-(1H-Imidazol-4-yl)-1-(4-(trifluoromethoxy)phenyl)-1H-pyrazolo[3,4-b]pyridin-3-yl)azetidin-1-yl)-2-fluoroprop-2-en-1-one], the IC50 was 5.4 µM on TEAD3, 0.54 µM on TEAD4, 1 µM on TEAD2 [2] and 0.38 µM on TEAD1.

For `C=CC(=O)NCc1nn(-c2ccc(OC(F)(F)F)cc2)c2nccc(CN(C)C)c12` [Compound 105, N-((4-((dimethylamino)methyl)-1-(4-(trifluoromethoxy)phenyl)-1H-pyrazolo[3,4-b]pyridin-3-yl)methyl)acrylamide], the IC50 on TEAD3 was determined as 50 µM; on TEAD4, 0.45 µM; at TEAD2 [2] it was 0.62 µM; on TEAD1 it was 1 µM.

For the compound `C=CC(=O)N(C)Cc1nn(-c2ccc(OC(F)(F)F)cc2)c2nccc(CO)c12` [Compound 55, N-((4-(Hydroxymethyl)-1-(4-(trifluoromethoxy)phenyl)-1H-pyrazolo[3,4-b]pyridin-3-yl)methyl)-N-methylacrylamide], the half-maximal inhibitory concentration (IC50) at TEAD3 is 0.16 µM; at TEAD4, 0.012 µM; on TEAD2 [2] it was 0.12 µM; on TEAD1 it was 0.017 µM.

On to `C=CC(=O)N(C)Cc1nn(-c2ccc(OC(F)(F)F)cc2)c2nccc([C@H](O)CO)c12` [Compound 139, (S)-N-((4-(1,2-Dihydroxyethyl)-1-(4-(trifluoromethoxy)phenyl)-1H-pyrazolo[3,4-b]pyridin-3-yl)methyl)-N-methylacrylamide], for which the IC50 on TEAD3 is 0.6 µM; at TEAD4, 0.012 µM; on TEAD2 [2] it was 0.026 µM; at TEAD1 it was 0.031 µM.

For `C=CC(=O)NCc1nn(-c2ccc(OC(F)(F)F)cc2)c2cccc(CO)c12` [Compound 4, N-((4-(hydroxymethyl)-1-(4-(trifluoromethoxy)phenyl)-1H-indazol-3-yl)methyl)acrylamide], the IC50 on TEAD3 worked out at 0.27 µM; on TEAD4 it was 0.059 µM; at TEAD2 [2], 0.14 µM; at TEAD1 it was 0.023 µM.

In the case of `C=CC(=O)NCc1nn(-c2ccc(OC(F)(F)F)cc2)c2nccc(N[C@H]3C[C@H](O)C3)c12` [Compound 85, N-((4-((3-hydroxycyclobutyl)amino)-1-(4-(trifluoromethoxy)phenyl)-1H-pyrazolo[3,4-b]pyridin-3-yl)methyl)acrylamide], the IC50 at TEAD3 amounted to 15 µM; at TEAD4, 0.17 µM; against TEAD2 [2] it was 0.48 µM; on TEAD1 it was 0.14 µM.

For the compound `C=CC(=O)NCc1nn(-c2ccc(S(F)(F)(F)(F)F)cc2)c2cccc(C#N)c12` [Compound 14, N-((4-cyano-1-(4-(pentafluoro-λ^6-sulfanyl)phenyl)-1H-indazol-3-yl)methyl)acrylamide], the IC50 at TEAD3 stood at 0.14 µM; on TEAD4, 0.033 µM; against TEAD2 [2] it was 50 µM; at TEAD1 it was 0.084 µM.

On to `C=CC(=O)NCc1nn(-c2ccc(OC(F)(F)F)cc2)c2nccc(N3CCC[C@@H](O)C3)c12` (stereo in doubt) [Compound 65, N-((4-(3-hydroxypiperidin-1-yl)-1-(4-(trifluoromethoxy)phenyl)-1H-pyrazolo[3,4-b]pyridin-3-yl)methyl)acrylamide], for which the IC50 on TEAD3 turned out to be 27 µM; on TEAD4 it was 0.031 µM; against TEAD2 [2] it was 0.099 µM; on TEAD1, 0.15 µM.

Take `C=C(Cl)C(=O)N1CC(c2nn(-c3ccc(OC(F)(F)F)cc3)c3nccc([C@H](O)CO)c23)C1` [Compound 109, (S)-2-Chloro-1-(3-(4-(1,2-dihydroxyethyl)-1-(4-(trifluoromethoxy)phenyl)-1H-pyrazolo[3,4-b]pyridin-3-yl)azetidin-1-yl)prop-2-en-1-one]: the IC50 at TEAD3 stood at 0.018 µM; at TEAD4 it was 0.00515 µM; against TEAD2 [2], 0.0078 µM; on TEAD1, 0.023 µM.

Turning to `O=C(C#CCO)NCc1nn(-c2ccc(OC(F)(F)F)cc2)c2nccc(CO)c12` [Compound 128, 4-Hydroxy-N-((4-(hydroxymethyl)-1-(4-(trifluoromethoxy)phenyl)-1H-pyrazolo[3,4-b]pyridin-3-yl)methyl)but-2-ynamide], the IC50 on TEAD3 was found to be 0.072 µM; on TEAD4, 0.0036 µM; on TEAD2 [2], 0.012 µM; at TEAD1, 0.0065 µM.

As for `C=CC(=O)NCc1nn(-c2ccc(OC(F)(F)F)cc2)c2nccc(CN3CC(O)C3)c12` [Compound 54, N-((4-((3-Hydroxyazetidin-1-yl)methyl)-1-(4-(trifluoromethoxy)phenyl)-1H-pyrazolo[3,4-b]pyridin-3-yl)methyl)acrylamide], the IC50 on TEAD3 was determined as 10 µM; at TEAD4 it was 0.86 µM; against TEAD2 [2], 0.73 µM; on TEAD1, 0.49 µM.

On to `C=C(F)C(=O)N1CC(c2nn(-c3ccc(OC(F)(F)F)cc3)c3nccc(-n4ccnc4)c23)C1` [Compound 64, 1-(3-(4-(1H-Imidazol-1-yl)-1-(4-(trifluoromethoxy)phenyl)-1H-pyrazolo[3,4-b]pyridin-3-yl)azetidin-1-yl)-2-fluoroprop-2-en-1-one], for which the IC50 on TEAD3 came to 1.3 µM; on TEAD4, 0.021 µM; against TEAD2 [2] it was 0.17 µM; at TEAD1, 0.023 µM.

On to `C=CC(=O)NCc1nn(-c2ccc(OC(F)(F)F)cc2)c2nccc(N3CC(O)(CO)C3)c12` [Compound 124, N-((4-(3-hydroxy-3-(hydroxymethyl)azetidin-1-yl)-1-(4-(trifluoromethoxy)phenyl)-1H-pyrazolo[3,4-b]pyridin-3-yl)methyl)acrylamide], for which the IC50 at TEAD3 stood at 0.93 µM; on TEAD4 it was 0.0099 µM; against TEAD2 [2], 0.2 µM; at TEAD1, 0.041 µM.

For `C=C(F)C(=O)N1CC(c2nn(-c3ccc(OC(F)(F)F)cc3)c3nccc([C@@H](O)CO)c23)C1` [Compound 21, 1-[3-[4-[(1R)-1,2-dihydroxyethyl]-1-[4-(trifluoromethoxy)phenyl]pyrazolo[3,4-b]pyridin-3-yl]azetidin-1-yl]-2-fluoro-prop-2-en-1-one], the IC50 at TEAD3 is 0.0385 µM; on TEAD4, 0.013 µM; against TEAD2 [2], 0.0072 µM; at TEAD1 it was 0.0215 µM.

In general, IC50 refers to the point on the concentration scale where inhibition reaches its midpoint.
